Results published in patent EP4792833A1, “CLEAVABLE LINKER COMPOUND FOR PRODRUG DELIVERY SYSTEM, AND PREPARATION AND USE THEREOF” (East China Normal University, priority 2023, dated 2025).

Tests used:
[1] = Stability test in PBS and mouse plasma (HPLC); format: in vitro ADME
Experimental: The PBS solution (1 mM, pH 7.4) of Compound (J1-1) prepared in Example 1 of the present invention was incubated at 37 °C. Corresponding samples (n=3) were taken on Day 1, Day 2, Day 3, Day 5, and Day 7, and the contents of (J1-1) and SN38 were determined by HPLC.
Mouse plasma stability: 40 µL of the PBS solution (1 mM, pH 7.4) of Compound (J1-1) prepared in Example 1 of the present invention was mixed with 360 µL of mouse plasma and incubated in a shaker at 37 °C. Corresponding samples (n=3) were taken on Day 1, Day 2, Day 3, Day 5, and Day 7, precipitated with cold acetonitrile, centrifuged at 4 °C for 30 min, and the supernatant was collected. The content of SN38 was determined by HPLC.

[2] = molecular target: T1, β-glucuronidase (Homo sapiens, UniProt P08236); test: Enzyme release assay with β-glucuronidase (SN38 by HPLC); format: biochemical; settings: for release of SN38 triggered by β-glucuronidase: β-glucuronidase 300 U, 37 °C, within 45 min
T1 sequence (P08236 23-651): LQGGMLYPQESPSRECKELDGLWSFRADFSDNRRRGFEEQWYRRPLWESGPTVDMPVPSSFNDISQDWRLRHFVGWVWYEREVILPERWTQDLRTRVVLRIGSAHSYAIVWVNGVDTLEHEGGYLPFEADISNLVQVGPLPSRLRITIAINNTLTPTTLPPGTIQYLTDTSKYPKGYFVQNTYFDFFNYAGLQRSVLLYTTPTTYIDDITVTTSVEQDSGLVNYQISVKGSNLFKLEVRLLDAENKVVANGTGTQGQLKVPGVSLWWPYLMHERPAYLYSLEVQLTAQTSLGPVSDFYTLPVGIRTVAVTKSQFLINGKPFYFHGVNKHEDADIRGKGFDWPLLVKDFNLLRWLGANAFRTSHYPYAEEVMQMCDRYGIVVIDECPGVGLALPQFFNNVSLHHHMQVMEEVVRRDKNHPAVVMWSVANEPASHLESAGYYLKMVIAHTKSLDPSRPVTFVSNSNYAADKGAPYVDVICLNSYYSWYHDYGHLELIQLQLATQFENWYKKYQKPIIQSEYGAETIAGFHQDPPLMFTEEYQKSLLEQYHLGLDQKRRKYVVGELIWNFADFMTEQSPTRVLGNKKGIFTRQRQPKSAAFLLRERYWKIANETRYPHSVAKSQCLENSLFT
Experimental: Compound (J1-1) solution (100 µM, pH 7.4 or pH 5.5) prepared in Example 1 of the present invention was mixed with β-glucuronidase (300 U) and incubated in a shaker at 37 °C. Corresponding samples (n=3) were taken at 1 min, 2 min, 5 min, 10 min, 20 min, 45 min, 60 min, and 90 min, precipitated with cold acetonitrile, centrifuged at 4 °C for 15 min, and the supernatant was collected. The content of SN38 was determined by HPLC.

[3] = tested on: HCT116, A549, MCF-7, HepG2, and 4T1 cells; test: In vitro drug cytotoxicity assay (MTT) with or without β-glucuronidase; format: cell-based; settings: 72 h
Experimental: The in vitro cytotoxicity of Compound (J1-1) prepared in Example 1 of the present invention against HCT116, A549, MCF-7, HepG2, and 4T1 cells, as well as that in the presence of β-glucuronidase, was determined by MTT assay. A total of 200 µL of culture medium containing 4000 cells was seeded into each well of a 96-well plate. After incubation for adherence for 24 h in an incubator (37 °C, 5% CO2), the culture medium was removed, and 200 µL of drug solutions at various concentrations with or without β-glucuronidase supplementation was added, followed by incubation for 72 h. The medium was removed, 100 µL of MTT solution (0.5 mg/mL) was added to each well, and the plate was incubated for 3 h. Subsequently, 100 µL of triple solution was added to each well, and the plate was incubated for 12 h. The absorbance (OD) at 570 nm was measured using a microplate reader. Cell viability was calculated according to the following formula: Cell viability % = (ODsample −ODblank)/(ODcontrol −ODblank) × 100% [formula]
ODsampleis the absorbance of the drug-treated group, ODblank is the absorbance of complete medium alone, ODcontrol is the absorbance of the cell-seeded group without drug treatment.

[4] = tested on: HCT116 cell xenograft tumor model; test: Antitumor effect in HCT116 xenograft nude mice; format: in vivo, BALB/c nude mice
Experimental: Female BALB/c nude mice (4 weeks old) were selected and acclimated for three days in a barrier facility. HCT116 cells (5×10^6) were subcutaneously inoculated into the right flank of nude mice. When tumors grew to 80-100 mm^3, tumor-bearing nude mice were randomly divided into four groups with six mice per group. Normal saline (blank group), 30 mg/kg of (J1-1), and 60 mg/kg of Compound (J1-1) prepared in Example 1 of the present invention (supplementary treatment group) were administered intravenously via the tail vein, respectively. Administration was performed twice a week for a total of five times. Body weight and tumor volume of nude mice were observed and recorded.

CCc1c2c(nc3ccc(OC(=O)N(C)c4cc([N+](=O)[O-])ccc4OCc4ccc(O[C@@H]5O[C@H](C(=O)O)[C@@H](O)[C@H](O)[C@H]5O)c(NC(=O)CCNC(=O)CCCCCN5C(=O)C=CC5=O)c4)cc13)-c1cc3c(c(=O)n1C2)COC(=O)[C@]3(O)CC [Compound J1-1]
release of SN38 ([1]; mouse plasma with PBS at pH 7.4, 37 °C, within seven days): less than 2% | in vitro and in vivo stability ([1]; summary statement): excellent | release of the active drug ([2]; conditions simulating the tumor microenvironment, summary statement): can rapidly release the active drug | release of SN38 triggered by β-glucuronidase ([2]; pH 5.5, 100 µM): 100% | release of SN38 triggered by β-glucuronidase ([2]; pH 7.4, 100 µM): 100% | in vitro cytotoxicity in the presence of β-glucuronidase ([3]; with β-glucuronidase): could release the active drug upon β-glucuronidase triggering, thereby achieving the purpose of killing tumor cells | in vitro cytotoxicity ([3]; without β-glucuronidase): low cytotoxicity | tumor volume ([4]; 30 mg/kg and 60 mg/kg intravenously via tail vein, twice a week, five administrations): significantly reduced or even eliminated | survival period ([4]; HCT116 xenograft mouse model, summary statement): significantly prolonged
